Entries after “also recorded” stand apart in the source; their conditions may differ. Where a SMILES comes first, the peptide text is derived from it. The star is where a group is joined. Cbz = O=C(OCc1ccccc1)*
Assays:
A549-Blue cells [1] = assay: Real-time cell-substrate impedance monitoring of drug-induced apoptosis; assay type: cell-based; details: for change of impedance signal after drug addition: addition at the 25-hour time point, time- and dose-dependent
Description: (§1) Cell maintenance and assays were conducted at 37° C./5% CO2 in F-12K media (ATCC; catalog number 30-2004) containing 10% heat-inactivated FBS (Corning, catalog number 35016CV). While impedance was measured every 15 minutes, images were acquired once per hour. In each well, four fields of view were captured for each channel (brightfield, red, green, and blue). Exposure times were as follows: red (300 ms), green (300 ms), and blue (80 ms). The A549-Blue cell line, which stably expresses nuclear-localized blue fluorescent protein (BFP), was produced by transducing A549 cells (ATCC; catalog number CCL-185) with Agilent eLenti Blue (p/n 8711012) at a multiplicity of infection of 1. From day 2 to day 11 postinfection, 1 μg/mL puromycin was included in the growth medium to select for transductants. For real-time visualization of activated caspase 3, Agilent eCaspase 3 NucView 488 (p/n 8711005) was included in growth medium at a concentration of 5 μm. For real-time visualization of translocated phosphatidylserine, Agilent eAnnexin V Red (p/n 8711007) was included in growth medium at a concentration of 0.25 μg/mL. Agilent E-Plate VIEW microplates (p/n 00300601030) were also used. MG132 (Tocris; catalog number 1748/5) and staurosporine (Calbiochem; catalog number 569396) stocks were dissolved in DMSO.
A549-Blue cells (described above) were seeded into an E-PATE VIEW at a density of 10,000 cells/well. As the cells proliferate over the first day, they occupy an expanding surface area on the biosensor array, causing the impedance signal to rise steadily (FIG. 11A and FIG. 11B). If left untreated, the cells grow to confluence, saturating the biosensor array and giving a plateaued impedance signal. […] The kinetics of these drug-induced responses, and the overall shape of the impedance traces, are distinct for each compound. […] Although MG132 and staurosporine both induce apoptosis, they elicit distinct cellular behaviors en route to cell death, which becomes strikingly clear when real-time impedance is multiplexed with live cell imaging.

A549-Blue cells [2] = assay: Live cell imaging (blue nuclei, % confluence, caspase 3, annexin V) of drug-treated cells; assay type: cell-based; details: for total number of blue nuclei: four highest concentrations (MG132 1.9, 5.5, 16.7, 50 μm; staurosporine 0.125-1 μm, over the subsequent 60 hours)
Description: as §1
Although A549-Blue cells already cover most of the well bottom by the 26-hour time point, in the absence of drug, they continue proliferating for another 50 hours, packing cells together at higher density (FIG. 12A). Consistent with this, the impedance signal plateaus at roughly 30 hours while the total number of blue nuclei continues to increase until ˜80 hours (FIG. 12A). Blue nuclei count is Obtained by an image processing algorithm to count the number of blue objects in the blue-fluorescent image. Each blue nuclei nucleus corresponds to an A549 cell as it was transduced to expresses nuclear-localized blue fluorescent protein. As such the number of blue nuclei in a well correspond to the number of viable A549-blue cells present in the well. […] Although, over time, these nuclei shrink in size and begin clustering together, they largely remain intact, explaining why the number of blue nuclei stays fairly constant in FIG. 12C. The above coupling of impedance with imaging clearly provides a more complete and nuanced understanding of drug-mediated A549 cell killing than would be possible using either technique alone. Moving beyond simple cell counts, we next probed the kinetics of biochemical phenomena that are specific to the apoptotic killing pathway.
Along with impedance and blue nuclei counts, the induction of apoptosis by MG132 was also tracked by percent cellular confluence, caspase 3 activation (causing cells to fluoresce green), and phosphatidylserine translocation (causing cells to fluoresce red). […] The bold white arrows in the panels for the 20- and 40-hour time points highlight large membrane blebs that contain phosphatidylserine in their outer leaflet.
Next, the continuous response of A549-Blue cells to MG132 was plotted using each of the image-based readouts. Blue nuclei counts (FIG. 14A) (FIG. 14A) display a dependency on drug concentration that closely reflects the impedance responses seen in (FIG. 11A), Despite the extensive apoptotic response, throughout the course of this assay the % cellular confluence never drops below 50% (FIG. 14B), where the cell confluence number is derived from bright field images through image processing algorithms. This is consistent with the fact that, unlike in vivo contexts, where apoptotic cells and their debris are removed through phagocytosis, in vitro, a large percentage of apoptotic cells continue to occupy the well bottom (FIG. 12B). […] Considering the number of cells that were seeded, their rate of growth, and the percentage of cells that display apoptotic markers (FIG. 13), the output numbers in FIGS. 14A-C are consistent with expectations. […]

A549-Blue cells [3] = assay: EC50 from dose response curves of impedance and image-based readouts (area under the curve); details: area under the curve from drug addition to 60 hours after; four readouts (normalized cell index, green cell number, red cell number, blue nuclei number); four-parameter logistic fit
Description: FIG. 16 provides a table and graphs showing the use of dose response curves to calculate EC50. Using real-time impedance (as represented by normalized cell index) data (FIG. 11A) and live cell imaging (green cell number, red cell number and blue nuclei number) data (FIGS. 14A-C), area under the curve was calculated, and is plotted here as a function of MG132 concentration. Data were fit to a four-parameter logistic equation to determine the EC50.
Using the impedance and image-based readouts presented in Examples II-IV, the EC50 for MG132 was calculated. The area under the curve, spanning from the time of drug addition to 60 hours after drug addition, was plotted as a function of MG132 concentration to yield the dose response curves seen in FIG. 16. The quality of the fitting for the four different readouts is quite good, with R2 values ranging from 0.96 to 0.98. The calculated EC50 values range from 0.86 to 3.0 μm, which is consistent with values reported in the literature. See Han, Y. H. et al. The Effect of MG132, a Proteasome Inhibitor on HeLa Cells in Relation to Cell Growth, Reactive Oxygen Species and GSH. Oncol. Rep. 2009, 22(1), 215-21.

Compound: CC(C)C[C@@H](C=O)NC(=O)[C@H](CC(C)C)NC(=O)[C@H](CC(C)C)NC(=O)OCc1ccccc1 [MG132] (Cbz-Leu-Leu-Leu-aldehyde)
- change of impedance signal after drug addition (A549-Blue cells [1]): marked decrease
- impedance signal at high concentrations (A549-Blue cells [1]; high concentrations of MG132 (FIG. 11A)): drop to zero; also recorded: dropped to zero
- number of caspase 3-activated cells exceeds number of phosphatidylserine translocated cells by (A549-Blue cells [2]; 50 μM MG132, 40 hours following the first 20 hours of drug treatment): approximately 20%
- time at which the number of blue nuclei begins to decrease (A549-Blue cells [2]; after drug addition, 50 μM MG132 (FIG. 15), same time caspase 3 activation and phosphatidylserine translocation become detectable): ~10 h
- number of caspase 3 positive (fluorescence green) objects (A549-Blue cells [2]; dependent on MG132 concentration (FIG. 14C)): increase over time
- number of annexin V positive (fluorescent red) objects (A549-Blue cells [2]; dependent on MG132 concentration (FIG. 14D)): increase over time
- total number of blue nuclei (A549-Blue cells [2]): decreases over time
- EC50 (A549-Blue cells [3]): 860 to 3000 nM

Compound: CN[C@@H]1C[C@H]2O[C@@](C)([C@@H]1OC)n1c3ccccc3c3c4c(c5c6ccccc6n2c5c31)C(=O)NC4 [staurosporine]
- change of impedance signal after drug addition (A549-Blue cells [1]): marked decrease
- impedance response at the four highest concentrations (A549-Blue cells [1]; staurosporine 0.125, 0.250, 0.500, and 1 μm): plummet within the first few minutes
- total number of blue nuclei (A549-Blue cells [2]): modest impact
- cell morphology by live cell imaging (A549-Blue cells [2]; one hour after staurosporine addition): shrunk so severely that their cytoplasm is barely visible; also recorded: massive cytoplasmic shrinkage

— patent US12049615B2, “Systems and methods for electronically and optically monitoring biological samples” (Agilent Technologies, Inc., priority 2020, dated 2024)
